Square brackets hold non-standard residues; d marks the D form. Peptide text beside a SMILES is read from it. * marks the point of attachment. Biotin = O=C1N[C@H]2[C@H](CS[C@H]2CCCCC(=O)*)N1
Biological target: T1, HCV NS3 protease (Hepatitis C virus genotype 1a, UniProt P27958)
T1 construct: HT (hydrophilic solubilizing tail) (C); made in house; host or cells: E. coli M15 [pREP4]
Assay: HPLC assay of inhibition of HCV NS3 protease cleavage of the 5A/5B substrate
Format: biochemical
Conditions: Example 2; separate method not given; read-out: IC50, monovalent inhibitors of the HCV NS3 protease
Procedure: Into an aqueous solution containing 25 mM TRIS, 50 mM NaCl, 0.5 mM EDTA, 10% glycerol and 0.1% NP40 was placed the potential inhibitor, the HCV NS3 protease at a concentration of 0.05 μM-[…], the HCV NS4A cofactor at a concentration of 0.05 μM-0.1 μM and the 5A/5B substrate at a concentration of 50 μM. This solution was then incubated for approximately 2 hours at 30° C. after which the solution was applied to an HPLC to determine if the 5A/5B remained intact and thus the compound was determined to be an inhibitor. […] The potential inhibitors were assayed at several different concentrations to determine the concentration which produced 50% inhibition of the HCV NS3 protease.

T1 sequence (P27958 1028-1209): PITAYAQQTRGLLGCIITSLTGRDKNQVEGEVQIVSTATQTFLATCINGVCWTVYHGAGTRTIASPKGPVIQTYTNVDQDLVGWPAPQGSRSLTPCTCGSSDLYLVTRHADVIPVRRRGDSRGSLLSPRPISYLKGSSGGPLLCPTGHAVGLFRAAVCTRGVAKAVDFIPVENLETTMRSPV

SMILES | IC50
CC[C@@H](C)[C@@H](NC(=O)[C@H](NC(=O)[C@@H](CC(C)C)NC(=O)[C@@H](CO)NC(C)=O)C(C)C)C(=O)N[C@H](CCCNC(=N)N)C(=O)NCC(=O)N[C@@H](C(=O)N[C@@H](C(=O)N[C@@H](C(N)=O)C(C)C)[C@H](C)CC)C(C)C [SEQ ID NO.: 12, Ser-Leu-Val-Ile-Arg-Gly-Val-Ile-Val] | 600 nM
CC[C@@H](C)[C@@H](NC(=O)[C@H](NC(=O)[C@@H](CC(C)C)NC(=O)[C@@H](CO)NC(=O)CNC(=O)[C@@H](CCCCN)NC(C)=O)C(C)C)C(=O)N[C@H](CCCNC(=N)N)C(=O)NCC(=O)N[C@@H](C(=O)N[C@@H](C(=O)N[C@@H](C(=O)N[C@@H](C(=O)N[C@H](CS)C(N)=O)C(C)C)C(C)C)[C@H](C)CC)C(C)C [SEQ ID NO.: 13, Lys-Gly-Ser-Leu-Val-Ile-Arg-Gly-Val-Ile-Val-Val-Cys] | 2000 nM
CC[C@@H](C)[C@@H](NC(=O)[C@H](NC(=O)[C@@H](CC(C)C)NC(=O)[C@@H](CO)NC(=O)CNC(=O)[C@@H](CCCCN)NC(=O)CCCC[C@@H]1SC[C@@H]2NC(=O)N[C@@H]21)C(C)C)C(=O)N[C@H](CCCNC(=N)N)C(=O)NCC(=O)N[C@@H](C(=O)N[C@@H](C(=O)N[C@@H](C(=O)N[C@@H](C(=O)N[C@H](CS)C(=O)N[C@@H](CCCCN)C(=O)N[C@@H](CCCCN)C(=O)O)C(C)C)C(C)C)[C@H](C)CC)C(C)C [SEQ ID NO.: 14, Xaa-Lys-Gly-Ser-Leu-Val-Ile-Arg-Gly-Val-Ile Val-Val-Cys-Lys-Lys] (Biotin-[dK]G[dS][dL][dV][dI][dR]G[dV][dI][dV][dV][dC]KK-OH) | 400 nM

From patent US5990276A, “Synthetic inhibitors of hepatitis C virus NS3 protease” (Schering Corporation, priority 1997, dated 1999)
